Literature values as cited in publication PMC10482975 (Nature Communications, 2023).
pKd: −log10 of the molar value.

Target: M2 mAChR
Settings: read-out: predicted affinity for allosteric binding; cited from earlier work

C[N+](C)(C)CC#CCN1CCCC1=O [oxotremorine-M]
pKd: < 3.00
